According to patent publication US20250042898A1, “Pharmaceutical Compounds And Compositions As c-Kit Kinase Inhibitors” (Enanta Pharmaceuticals, Inc., priority 2023, published 2025):

Experiments:
[1] = biological target: Recombinant human c-KIT kinase (Homo sapiens (Human), UniProt P10721); assay: c-KIT Kinase Chemiluminescence Assay (ADP-Glo); type: biochemical; conditions: recombinant human c-KIT 25 ng, ATP 50 μM, polyEY substrate, ADP-Glo luminescence
From the text: Staurosporine (AM-2282) and Imatinib (STI571) were purchased from Selleck Chemicals LLC (Houston, TX). The c-KIT reference compound THB001 (EP-053504) was synthesized by Enanta Pharmaceuticals, Inc. (Watertown, MA). The c-KIT Kinase Enzyme System (V4498) and ADP-Glo™ Kinase Assay kit (V6930) were purchased from Promega (Madison, WI). DMSO (D2650) was purchased from Sigma-Aldrich (Burlington, MA). ECHO-650 acoustic liquid handling system (67/492,212) and 384-well LDV ECHO source plates (LP-0200) were purchased from Labcyte, Inc (San Jose, CA). Envision Multimode Plate Reader (2104/464466) and ProxiPlate-384 Plus White 384-shallow well microplates (6008280) were purchased from PerkinElmer (Waltham, MA).
c-KIT Kinase Chemiluminescence Assay:
IC50 determination. Test compounds were dispersed into a 384-well low volume while ProxiPlate microplate from a DMSO solution using an ECHO 650 acoustic dispenser to generate a 11-point, 3.162-fold dilution, concentration curve starting at 10 μM in duplicate. Kinase Reaction: The kinase assay was based on the recommended protocol by c-KIT Kinase Enzyme System from Promega. Recombinant human c-KIT kinase in 3 μL of assay buffer (40 mM Tris pH 7.5, 20 mM MgCl2, 0.1 mg/mL BSA and 50 μM DTT) was added to the test or high control wells and 3 μL of assay buffer was added to the low control wells. The microplate was centrifuged at 800 rotations per minute (rpm) for 60 s and incubated at room temperature (RT) for 30 min. Next, 2 μL of buffered ATP and polyEY substrate solution was added to all wells. The microplate was centrifuged at 800 rpm for 60 s and incubated at RT for 2 h. The final assay contained c-KIT (25 ng), ATP (50 μM), polyEY substrate (0.2 μg/μL), test compounds (0-10 μM) and DMSO (1.7%) in 5 μL assay buffer. ADP detection with ADP-Glo™ Kinase Assay: After the kinase reaction incubation, 5 μL of ADP-Glo™ reagent was added to all wells. The microplate was centrifuged at 800 rpm for 60 s and incubated at RT for 40 min. Ten microliter (10 μL) of Kinase Detection Reagent (Luciferin-Luciferase system) was then added to all wells. The microplate was centrifuged at 800 rpm for 60 s and incubated at RT for 60 min. Kinase activity was measured as increase in luminescence at RT in an Envision plate reader equipped with 560 nm filters and operating in endpoint mode.
Data Analysis: Endpoint chemiluminescence from high and low control wells were used to calculate normalized c-KIT activity at various concentrations of test compounds. The normalized activities were fitted to inhibitor-versus-normalized response fit in GraphPad Prism 7 to determine half-maximal inhibitory concentration (IC50) and hill coefficient values (H).
c-KIT activity (%)=100/(1+I^H/IC50^H).
Where I is the inhibitor concentration and H is the Hill coefficient.
IC50 ranges are reported as follows: A<100 nM; B 0.1-1 μM; C>1 μM.

M-07e cells = assay: M-07e Cellular Assay (SCF-mediated cell proliferation, CellTiter Glo); type: cell-based; conditions: Homo sapiens, SCF at EC90, 72 hours incubation, CellTiter Glo cell viability, read-out: M-7e EC50
Experimental: M-07e cells (Creative Bioarray, CSC-C0249) which endogenously express human c-KIT were used to evaluate the effect of compounds on stem cell factor (SCF)-mediated cell proliferation. M-07e cells were cultured in growth media (RPMI+10% FBS+1% penicillin/streptomycin+10 ng/mL GM-CSF) at 5E5-1.5E6 cells/mL, replenishing media every 3-4 days. 1.5E4 cells were seeded per well in 384 well tissue culture treated plates in […] assay media (RPMI+10% FBS+1% penicillin/streptomycin) without growth factor stimulation and incubated at 37° C. in a CO2 humidity-controlled incubator. Twenty-four hours later, three-fold serially diluted test compounds in media containing SCF (at the previously determined EC90) were added to the plated M-07e cells and incubated for an additional 72 hours. Cell viability was determined by adding 25 μL CellTiter Glo (Promega) to the cells and the luminescence was measured using a Perkin Elmer Envision plate reader. The EC50 was determined using GraphPad Prism. Percent cell growth was determined after normalizing the curve to the mean RLU high control (no compound control wells) at 100% and the mean RLU low control (no SCF control wells) at 0%. EC50 curves were generated using a variable slope four-parameter logistic model with equation […]. ECso ranges are reported as follows: A<100 nM; B 0.1-1 μM; C>1 μM.

Chain of Recombinant human c-KIT kinase (P10721 26-976): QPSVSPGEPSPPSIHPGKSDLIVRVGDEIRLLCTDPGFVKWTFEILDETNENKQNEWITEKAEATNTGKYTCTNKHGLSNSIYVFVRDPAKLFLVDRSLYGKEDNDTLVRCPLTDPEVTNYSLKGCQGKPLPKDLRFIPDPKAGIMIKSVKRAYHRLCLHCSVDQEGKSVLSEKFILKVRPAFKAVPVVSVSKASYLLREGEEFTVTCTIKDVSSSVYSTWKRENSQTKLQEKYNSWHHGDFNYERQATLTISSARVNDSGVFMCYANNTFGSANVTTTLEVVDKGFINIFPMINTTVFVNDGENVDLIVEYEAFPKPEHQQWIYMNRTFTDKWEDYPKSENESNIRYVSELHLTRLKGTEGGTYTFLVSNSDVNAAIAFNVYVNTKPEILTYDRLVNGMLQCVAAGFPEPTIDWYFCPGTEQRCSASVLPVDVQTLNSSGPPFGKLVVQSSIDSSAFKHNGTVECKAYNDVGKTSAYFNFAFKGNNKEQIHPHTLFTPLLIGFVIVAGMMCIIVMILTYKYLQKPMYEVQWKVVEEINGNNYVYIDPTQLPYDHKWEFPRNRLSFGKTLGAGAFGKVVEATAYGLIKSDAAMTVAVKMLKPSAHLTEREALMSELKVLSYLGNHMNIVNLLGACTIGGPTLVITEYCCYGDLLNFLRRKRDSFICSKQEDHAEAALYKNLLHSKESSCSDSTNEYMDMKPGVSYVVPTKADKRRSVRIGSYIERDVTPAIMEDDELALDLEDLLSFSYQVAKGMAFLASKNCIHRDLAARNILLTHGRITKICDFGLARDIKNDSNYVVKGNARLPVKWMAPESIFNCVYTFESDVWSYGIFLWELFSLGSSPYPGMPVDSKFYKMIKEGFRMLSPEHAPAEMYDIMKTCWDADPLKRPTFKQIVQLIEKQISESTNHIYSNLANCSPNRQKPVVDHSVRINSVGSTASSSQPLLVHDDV

Structure (SMILES)	IC50 [1] [nM]	EC50 (M-07e cells) [nM]
O=C(Nc1cc(-c2noc([C@H]3C[C@@H]3F)n2)ccn1)c1cnc2ccccn12 [Example 1]	> 1000	> 1000
O=C(Nc1cc(-c2noc(C3CC(F)(F)C3)n2)ccn1)c1cnc2ccccn12 [Example 2]	> 1000	> 1000
Cc1sc(-c2noc([C@H]3C[C@@H]3F)n2)cc1NC(=O)c1cnc2ccccn12 [Example 3]	100 to 1000	100 to 1000
Cc1sc(-c2noc(C3CC(F)(F)C3)n2)cc1NC(=O)c1cnc2ccccn12 [Example 4]	100 to 1000	100 to 1000
Cc1ncc(-c2ncc(OC(F)(F)F)cn2)cc1NC(=O)c1cnc2ccc(N3CC4(C3)CC(O)(C(F)F)C4)cn12 [Example 14]	> 1000	
Cc1ncc(-c2noc([C@H]3C[C@@H]3F)n2)cc1NC(=O)c1cnc2ccc(N3CC4(C3)CC(O)(C(F)F)C4)cn12 [Example 15]	100 to 1000	
Cc1ncc(-c2nnn(C3CC(F)(F)C3)n2)cc1NC(=O)c1cnc2ccc(N3CC4(C3)CC(O)(C(F)F)C4)cn12 [Example 16]	100 to 1000	
Cc1ncc(-c2noc([C@H]3C[C@@H]3F)n2)cc1NC(=O)c1cnc2cc(N3CC4(C3)CC(O)(C(F)F)C4)ccn12 [Example 17]	100 to 1000	
